#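 These data come from cells grown in 96-well plates and exposed to compound for 48 hours at five concentrations. Abbreviation: GI50, concentration required for 50% inhibition of growth. TGI: total growth inhibition.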
# What was measured:
# Test in all cases: NCI-60 cell line screen, 48 h
# [1] = test system: IGROV1 ovarian
# [2] = test system: MDA-MB-435
# [3] = test system: COLO 205 colon
# [4] = test system: HCT-15 colon
# [5] = test system: HS 578T breast
# [6] = test system: NCI-H522 lung
# [7] = test system: SF-295 CNS
# [8] = test system: KM12 colon
# [9] = test system: ACHN renal
# [10] = test system: EKVX NSCLC
# [11] = test system: NCI-H460 lung
# [12] = test system: PC-3 prostate
# [13] = test system: HCC-2998 colon
# [14] = test system: UACC-62 melanoma
# [15] = test system: NCI-H226 lung
# [16] = test system: SK-OV-3 ovarian
# [17] = test system: U251 CNS
# [18] = test system: CCRF-CEM leukemia
# [19] = test system: UACC-257 melanoma
# [20] = test system: LOX IMVI melanoma
# [21] = test system: MDA-MB-231 breast
# [22] = test system: HL-60(TB) leukemia
# [23] = test system: MCF7 breast
# [24] = test system: CAKI-1 renal
# [25] = test system: HOP-92 NSCLC
# [26] = test system: SN12C renal
# [27] = test system: NCI-H23 lung
# [28] = test system: DU-145 prostate
# [29] = test system: HCT-116 colon
structure (smiles),measurement,setting,value
O=C(Nc1ccccc1C(=O)N/N=C(\c1ccccc1)c1ccccn1)c1ccccc1,GI50,[1],502 nM
same,TGI,[1],> 100000 nM
same,GI50,[2],1390 nM
same,TGI,[2],> 100000 nM
same,GI50,[3],427 nM
same,TGI,[3],> 100000 nM
same,GI50,[4],112 nM
same,TGI,[4],> 100000 nM
same,GI50,[5],> 100000 nM
same,TGI,[5],> 100000 nM
same,GI50,[6],1270 nM
same,TGI,[6],> 100000 nM
same,GI50,[7],427 nM
same,TGI,[7],> 67000 nM
same,GI50,[8],581 nM
same,TGI,[8],> 100000 nM
same,GI50,[9],418 nM
same,TGI,[9],> 100000 nM
same,GI50,[10],339 nM
same,TGI,[10],> 100000 nM
same,GI50,[11],402 nM
same,TGI,[11],> 100000 nM
same,GI50,[12],711 nM
same,TGI,[12],> 100000 nM
same,GI50,[13],537 nM
same,TGI,[13],> 100000 nM
same,GI50,[14],496 nM
same,GI50,[15],828 nM
same,TGI,[15],> 100000 nM
same,GI50,[16],504 nM
same,TGI,[16],> 100000 nM
same,GI50,[17],657 nM
same,TGI,[17],> 100000 nM
same,GI50,[18],351 nM
same,TGI,[18],> 100000 nM
same,GI50,[19],2580 nM
same,TGI,[19],> 100000 nM
same,GI50,[20],505 nM
same,TGI,[20],> 100000 nM
same,GI50,[21],478 nM
same,TGI,[21],> 100000 nM
same,GI50,[22],606 nM
same,TGI,[22],> 22000 nM
same,GI50,[23],556 nM
same,TGI,[23],> 100000 nM
same,GI50,[24],397 nM
same,TGI,[24],> 100000 nM
same,GI50,[25],552 nM
same,TGI,[25],47800 nM
same,GI50,[26],623 nM
same,TGI,[26],> 100000 nM
same,GI50,[27],1870 nM
same,TGI,[27],> 100000 nM
same,GI50,[28],999 nM
same,TGI,[28],> 100000 nM
same,GI50,[29],405 nM
same,TGI,[29],> 100000 nM

# Reference: PubChem BioAssay (NCI)
